Measured values published in PubChem BioAssay (NCI).
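Method: 48-hour compound exposure of cells in 96-well plates, five concentrations, linear interpolation of endpoints. GI50 is the concentration that inhibits growth by half. TGI is the concentration that stops growth completely.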

Experiments:
Experiment in all cases: growth of human tumour cells (NCI), 48 h
[1] = system: A549 NSCLC
[2] = system: MALME-3M melanoma
[3] = system: UO-31 renal
[4] = system: HCT-15 colon
[5] = system: 786-0 renal
[6] = system: K-562 leukemia
[7] = system: HCT-116 colon
[8] = system: HOP-92 NSCLC
[9] = system: KM12 colon
[10] = system: SNB-75 CNS
[11] = system: CAKI-1 renal
[12] = system: NCI-H23 lung
[13] = system: HT29 colon
[14] = system: EKVX NSCLC
[15] = system: LOX IMVI melanoma
[16] = system: SNB-19 CNS
[17] = system: OVCAR-8 ovarian
[18] = system: PC-3 prostate
[19] = system: DU-145 prostate
[20] = system: MOLT-4 leukemia
[21] = system: SK-MEL-2 melanoma
[22] = system: SK-OV-3 ovarian
[23] = system: RXF 393 renal
[24] = system: NCI/ADR-RES ovarian
[25] = system: NCI-H522 lung
[26] = system: SW-620 colon
[27] = system: OVCAR-4 ovarian
[28] = system: IGROV1 ovarian
[29] = system: SF-268 CNS

CCN(c1cc(C#CCN2CCOCC2)cc(C(=O)NCc2c(C)cc(C)[nH]c2=O)c1C)C1CCC(N(C)CCOC)CC1 (stereo not drawn)
GI50 [1]: > 100 µM | TGI [1]: > 100 µM | GI50 [2]: > 100 µM | TGI [2]: > 100 µM | GI50 [3]: > 100 µM | TGI [3]: > 100 µM | GI50 [4]: > 100 µM | TGI [4]: > 100 µM | GI50 [5]: > 100 µM | TGI [5]: > 100 µM | GI50 [6]: > 100 µM | TGI [6]: > 100 µM | GI50 [7]: > 100 µM | TGI [7]: > 100 µM | GI50 [8]: > 100 µM | TGI [8]: > 100 µM | GI50 [9]: > 100 µM | TGI [9]: > 100 µM | GI50 [10]: 53.1 µM | TGI [10]: > 100 µM | GI50 [11]: > 100 µM | TGI [11]: > 100 µM | GI50 [12]: > 100 µM | TGI [12]: > 100 µM | GI50 [13]: > 100 µM | TGI [13]: > 100 µM | GI50 [14]: > 100 µM | TGI [14]: > 100 µM | GI50 [15]: > 100 µM | TGI [15]: > 100 µM | GI50 [16]: > 100 µM | TGI [16]: > 100 µM | GI50 [17]: > 100 µM | TGI [17]: > 100 µM | GI50 [18]: > 100 µM | TGI [18]: > 100 µM | GI50 [19]: > 100 µM | TGI [19]: > 100 µM | GI50 [20]: > 100 µM | TGI [20]: > 100 µM | GI50 [21]: > 100 µM | TGI [21]: > 100 µM | GI50 [22]: > 100 µM | TGI [22]: > 100 µM | GI50 [23]: > 100 µM | TGI [23]: > 100 µM | GI50 [24]: > 100 µM | TGI [24]: > 100 µM | GI50 [25]: > 100 µM | TGI [25]: > 100 µM | GI50 [26]: > 100 µM | TGI [26]: > 100 µM | GI50 [27]: > 100 µM | TGI [27]: > 100 µM | GI50 [28]: > 100 µM | TGI [28]: > 100 µM | GI50 [29]: > 100 µM | TGI [29]: > 100 µM
